± gives the expanded uncertainty stated by the source.
Settings: Liquid; for mass density: vibrating tube; for viscosity: Stony Brook Scientific falling needle HPHTV-100 viscometer

CCCCCCCC[n+]1ccn(C)c1.F[B-](F)(F)F [1-methyl-3-octylimidazolium tetrafluoroborate]
Settings | mass density [kg/m3] | viscosity [mPa·s]
283.15 K, 100 kPa | 1114.58 ± 0.96 | –
283.15 K, 2000 kPa | 1115.49 ± 0.95 | –
283.15 K, 4000 kPa | 1116.46 ± 0.95 | –
283.15 K, 6000 kPa | 1117.44 ± 0.95 | –
283.15 K, 8000 kPa | 1118.4 ± 0.95 | –
283.15 K, 10000 kPa | 1119.31 ± 0.94 | –
283.15 K, 12000 kPa | 1120.25 ± 0.94 | –
283.15 K, 14000 kPa | 1121.19 ± 0.94 | –
283.15 K, 20000 kPa | 1123.96 ± 0.93 | –
283.15 K, 30000 kPa | 1128.45 ± 0.94 | –
283.15 K, 40000 kPa | 1132.79 ± 0.94 | –
283.15 K, 50000 kPa | 1136.9 ± 0.94 | –
283.15 K, 60000 kPa | 1140.94 ± 0.95 | –
283.53 K, 140 kPa | – | 774.7 ± 86
283.53 K, 680 kPa | – | 781 ± 86
283.55 K, 1680 kPa | – | 793.9 ± 88
283.55 K, 7960 kPa | – | 878.4 ± 98
283.6 K, 11830 kPa | – | 908.6 ± 100
283.6 K, 14620 kPa | – | 950.1 ± 110
283.61 K, 10090 kPa | – | 894.7 ± 100
283.63 K, 4380 kPa | – | 815.4 ± 91
283.65 K, 4110 kPa | – | 811.4 ± 90
283.67 K, 5540 kPa | – | 834.1 ± 93
283.72 K, 2750 kPa | – | 803.7 ± 89
288.15 K, 100 kPa | 1111.12 ± 0.95 | –
288.15 K, 2000 kPa | 1112.07 ± 0.95 | –
288.15 K, 4000 kPa | 1113.07 ± 0.95 | –
288.15 K, 6000 kPa | 1114.04 ± 0.95 | –
288.15 K, 8000 kPa | 1115.03 ± 0.95 | –
288.15 K, 10000 kPa | 1116.03 ± 0.94 | –
288.15 K, 12000 kPa | 1116.94 ± 0.94 | –
288.15 K, 14000 kPa | 1117.9 ± 0.94 | –
288.15 K, 20000 kPa | 1120.72 ± 0.94 | –
288.15 K, 30000 kPa | 1125.21 ± 0.94 | –
288.15 K, 40000 kPa | 1129.56 ± 0.95 | –
288.15 K, 50000 kPa | 1133.75 ± 0.95 | –
288.15 K, 60000 kPa | 1137.81 ± 0.95 | –
293.15 K, 100 kPa | 1107.68 ± 0.95 | –
293.15 K, 2000 kPa | 1108.68 ± 0.95 | –
293.15 K, 4000 kPa | 1109.68 ± 0.95 | –
293.15 K, 6000 kPa | 1110.66 ± 0.95 | –
293.15 K, 8000 kPa | 1111.66 ± 0.95 | –
293.15 K, 10000 kPa | 1112.63 ± 0.95 | –
293.15 K, 12000 kPa | 1113.61 ± 0.94 | –
293.15 K, 14000 kPa | 1114.55 ± 0.94 | –
293.15 K, 20000 kPa | 1117.38 ± 0.94 | –
293.15 K, 30000 kPa | 1121.95 ± 0.94 | –
293.15 K, 40000 kPa | 1126.31 ± 0.94 | –
293.15 K, 50000 kPa | 1130.56 ± 0.94 | –
293.15 K, 60000 kPa | 1134.64 ± 0.95 | –
293.65 K, 130 kPa | – | 403.7 ± 49
293.65 K, 2010 kPa | – | 409.7 ± 50
293.65 K, 4090 kPa | – | 423 ± 57
293.65 K, 4310 kPa | – | 418.7 ± 55
293.65 K, 6110 kPa | – | 433.3 ± 53
293.65 K, 6580 kPa | – | 434.4 ± 48
293.65 K, 8080 kPa | – | 447.6 ± 50
293.65 K, 10200 kPa | – | 458.3 ± 51
293.65 K, 12100 kPa | – | 466.6 ± 52
293.65 K, 14310 kPa | – | 478.8 ± 59
293.65 K, 14330 kPa | – | 483.6 ± 60
298.15 K, 100 kPa | 1104.31 ± 0.94 | –
298.15 K, 2000 kPa | 1105.26 ± 0.95 | –
298.15 K, 4000 kPa | 1106.28 ± 0.95 | –
298.15 K, 6000 kPa | 1107.31 ± 0.94 | –
298.15 K, 8000 kPa | 1108.29 ± 0.94 | –
298.15 K, 10000 kPa | 1109.29 ± 0.94 | –
298.15 K, 12000 kPa | 1110.27 ± 0.94 | –
298.15 K, 14000 kPa | 1111.29 ± 0.94 | –
298.15 K, 20000 kPa | 1114.12 ± 0.94 | –
298.15 K, 30000 kPa | 1118.74 ± 0.94 | –
298.15 K, 40000 kPa | 1123.16 ± 0.94 | –
298.15 K, 50000 kPa | 1127.47 ± 0.94 | –
298.15 K, 60000 kPa | 1131.57 ± 0.94 | –
303.15 K, 100 kPa | 1100.92 ± 0.95 | –
303.15 K, 2000 kPa | 1101.88 ± 0.94 | –
303.15 K, 4000 kPa | 1102.9 ± 0.94 | –
303.15 K, 6000 kPa | 1103.93 ± 0.94 | –
303.15 K, 8000 kPa | 1104.97 ± 0.94 | –
303.15 K, 10000 kPa | 1105.98 ± 0.94 | –
303.15 K, 12000 kPa | 1107.03 ± 0.94 | –
303.15 K, 14000 kPa | 1107.96 ± 0.94 | –
303.15 K, 20000 kPa | 1110.85 ± 0.94 | –
303.15 K, 30000 kPa | 1115.56 ± 0.94 | –
303.15 K, 40000 kPa | 1120.01 ± 0.93 | –
303.15 K, 50000 kPa | 1124.34 ± 0.94 | –
303.15 K, 60000 kPa | 1128.52 ± 0.93 | –
303.74 K, 13240 kPa | – | 258.3 ± 28
303.8 K, 2750 kPa | – | 227.3 ± 25
303.82 K, 14800 kPa | – | 261.8 ± 31
303.85 K, 4160 kPa | – | 230.6 ± 27
303.85 K, 5600 kPa | – | 233.6 ± 28
303.91 K, 8710 kPa | – | 241.6 ± 26
303.95 K, 11220 kPa | – | 250.7 ± 28
303.96 K, 160 kPa | – | 219.1 ± 26
304.01 K, 2040 kPa | – | 222.9 ± 26
304.03 K, 1190 kPa | – | 221.6 ± 24
304.05 K, 6140 kPa | – | 232.1 ± 28
304.05 K, 7390 kPa | – | 238.6 ± 26
308.15 K, 100 kPa | 1097.49 ± 0.95 | –
308.15 K, 2000 kPa | 1098.5 ± 0.94 | –
308.15 K, 4000 kPa | 1099.56 ± 0.94 | –
308.15 K, 6000 kPa | 1100.61 ± 0.94 | –
308.15 K, 8000 kPa | 1101.64 ± 0.94 | –
308.15 K, 10000 kPa | 1102.66 ± 0.94 | –
308.15 K, 12000 kPa | 1103.66 ± 0.94 | –
308.15 K, 14000 kPa | 1104.66 ± 0.94 | –
308.15 K, 20000 kPa | 1107.61 ± 0.93 | –
308.15 K, 30000 kPa | 1112.34 ± 0.93 | –
308.15 K, 40000 kPa | 1116.89 ± 0.93 | –
308.15 K, 50000 kPa | 1121.29 ± 0.93 | –
308.15 K, 60000 kPa | 1125.53 ± 0.93 | –
312.95 K, 650 kPa | – | 137.4 ± 15
312.95 K, 1600 kPa | – | 139.3 ± 16
313.05 K, 130 kPa | – | 137.3 ± 16
313.05 K, 2670 kPa | – | 141.1 ± 16
313.05 K, 4260 kPa | – | 142.8 ± 16
313.05 K, 6130 kPa | – | 145.7 ± 16
313.05 K, 8180 kPa | – | 150.2 ± 17
313.05 K, 10130 kPa | – | 152.7 ± 16
313.05 K, 12200 kPa | – | 157.1 ± 17
313.05 K, 14260 kPa | – | 161 ± 18
313.15 K, 100 kPa | 1094.13 ± 0.94 | –
313.15 K, 2000 kPa | 1095.13 ± 0.94 | –
313.15 K, 4000 kPa | 1096.26 ± 0.94 | –
313.15 K, 6000 kPa | 1097.28 ± 0.94 | –
313.15 K, 8000 kPa | 1098.3 ± 0.94 | –
313.15 K, 10000 kPa | 1099.33 ± 0.93 | –
313.15 K, 12000 kPa | 1100.39 ± 0.93 | –
313.15 K, 14000 kPa | 1101.41 ± 0.93 | –
313.15 K, 20000 kPa | 1104.39 ± 0.93 | –
313.15 K, 30000 kPa | 1109.19 ± 0.93 | –
313.15 K, 40000 kPa | 1113.81 ± 0.93 | –
313.15 K, 50000 kPa | 1118.25 ± 0.93 | –
313.15 K, 60000 kPa | 1122.52 ± 0.93 | –
318.15 K, 100 kPa | 1090.78 ± 0.94 | –
318.15 K, 2000 kPa | 1091.83 ± 0.93 | –
318.15 K, 4000 kPa | 1092.91 ± 0.94 | –
318.15 K, 6000 kPa | 1094 ± 0.93 | –
318.15 K, 8000 kPa | 1095.03 ± 0.93 | –
318.15 K, 10000 kPa | 1096.1 ± 0.93 | –
318.15 K, 12000 kPa | 1097.15 ± 0.93 | –
318.15 K, 14000 kPa | 1098.18 ± 0.93 | –
318.15 K, 20000 kPa | 1101.2 ± 0.93 | –
318.15 K, 30000 kPa | 1106.06 ± 0.93 | –
318.15 K, 40000 kPa | 1110.72 ± 0.93 | –
318.15 K, 50000 kPa | 1115.21 ± 0.93 | –
318.15 K, 60000 kPa | 1119.54 ± 0.93 | –
323.15 K, 100 kPa | 1087.45 ± 0.93 | –
323.15 K, 2000 kPa | 1088.5 ± 0.94 | –
323.15 K, 4000 kPa | 1089.6 ± 0.94 | –
323.15 K, 6000 kPa | 1090.68 ± 0.94 | –
323.15 K, 8000 kPa | 1091.76 ± 0.93 | –
323.15 K, 10000 kPa | 1092.8 ± 0.93 | –
323.15 K, 12000 kPa | 1093.87 ± 0.94 | –
323.15 K, 14000 kPa | 1094.9 ± 0.94 | –
323.15 K, 20000 kPa | 1097.97 ± 0.94 | –
323.15 K, 30000 kPa | 1102.88 ± 0.94 | –
323.15 K, 40000 kPa | 1107.6 ± 0.94 | –
323.15 K, 50000 kPa | 1112.12 ± 0.94 | –
323.15 K, 60000 kPa | 1116.48 ± 0.94 | –
323.43 K, 140 kPa | – | 83.7 ± 9.8
323.46 K, 680 kPa | – | 84.3 ± 9.8
323.55 K, 1710 kPa | – | 85 ± 9.9
323.56 K, 13080 kPa | – | 96.3 ± 11
323.58 K, 14330 kPa | – | 97.4 ± 12
323.63 K, 9640 kPa | – | 92.7 ± 11
323.65 K, 130 kPa | – | 83.6 ± 9.8
323.65 K, 2760 kPa | – | 85.9 ± 10
323.65 K, 6190 kPa | – | 88.2 ± 10
323.65 K, 11060 kPa | – | 93.2 ± 11
323.68 K, 4240 kPa | – | 86.8 ± 10
323.73 K, 8190 kPa | – | 90.2 ± 11
323.75 K, 10400 kPa | – | 92.1 ± 11
323.75 K, 12340 kPa | – | 94 ± 11
